{"source": "patent US20140371244A1", "about": "“METHOD FOR TREATING PROSTATE CANCER BY USE OF PHARMACEUTICAL COMPOSITION CONTAINING A3 ADENOSINE RECEPTOR AGONIST” (priority 2009, published 2014)", "key": {"iNOS": {"system": "iNOS", "assay": "Expression of iNOS protein and gene (Western blot, RT-PCR) in LPS-stimulated RAW 264.7 cells", "format": "cell-based, mouse", "protocol": "The effects of the inventive composition on the expression of iNOS protein and mRNA were examined by Western blot analysis and RT-PCR. Specifically, RAW 264.7 cells were diluted with 10% FBS-containing medium to a density of 1×10^6 cells per 100 mm culture dish and cultured under the conditions of 37° C. and 5% CO2 for 24 hours, followed by washing twice with PBS. The cells were pretreated with each of 20 μM (the highest concentration showing no cytotoxicity), 10 μM and 5 μM of thio-Cl-IB-MECA in 10% FBS-containing medium, and inflammatory reactions in the cells were induced by LPS (1 μg/ml), followed by culture for 18 hours. […] The cells were thawed at 37° C. immediately before use and used in protein quantification and electrophoresis.\nProtein quantification was performed using the BCA method, and […] of the protein was electrophoresed on 8-12% SDS-polyacrylamide gel at 150 V for 110 minutes. […] The membrane was washed 2-3 times with PBST for 5 minutes each time, after which HRP-conjugated secondary antibody was diluted at a ratio of 1:1,500-1:2,000 and incubated with the membrane at room temperature for 2-3 hours. the membrane was washed three times with PBST for 5 minutes each time and treated with a Western blot substrate (WESTSAVE Up™), and the produced luminescence was examined using LAS-3000. […]"}, "IL-1β": {"system": "IL-1β", "assay": "IL-1β gene and protein expression in LPS-stimulated RAW 264.7 cells", "format": "cell-based, mouse", "conditions": "5, 10, 20 μM, LPS 1 μg/ml", "protocol": "IL-1β is one of major factors involved in inflammation and functions to induce the expression of several genes related to inflammation and tissue injury. Thus, the effects of the inventive composition on the expressions of mRNA gene and protein of IL-1β were tested. Specifically, RAW 264.7 cells were pretreated with each of 20, 10 and 5 μM of the inventive composition (thio-Cl-IB-MECA) and treated with LPS (1 μg/ml) to induce inflammatory reactions, followed by culture for 4 hours. The RNA fraction was collected and cultured for 8 hours, and then the protein was collected and subjected to RT-PCR and Western blot."}, "PC-3 cells": {"system": "PC-3 cells", "assay": "Western blot of cell cycle regulation-related proteins and Wnt signaling in PC-3 cells", "format": "cell-based, human", "protocol": "A test was carried out to examine whether the inhibitory effects of thio-Cl-IB-MECA on the proliferation of LNCaP cells and PC-3 cells are attributable to regulation of the Wnt signaling pathway.\nSpecifically, each type of LNCaP cells and PC-3 cells was diluted with 10% FBS-containing medium to a density of 1.0×10^6 cells per 100 mm culture dish and cultured under the conditions of 37° C. and 5% CO2 for 24 hours, followed by washing twice with PBS. Thio-Cl-IB-MECA was diluted in 10% FBS-containing medium at required concentration, and then 10 ml of the culture medium prepared in the 100 mm culture dish was added thereto and cultured for a given period. The non-adherent cells and adherent cells in the cell medium were collected and washed twice with PBS, after which the cells were suspended in boiling cell lysis buffer and heated at 100° C. for 5 minutes. The cells were cooled and then stored at […], and the stored cells were thawed at 37° C. immediately before use in protein quantification and electrophoresis. Protein quantification was performed using the BCA method, and […] of protein was electrophoresed on 8-12% SDS-polyacrylamide gel at 150 V for 110 minutes. The gel at the desired site was cut and transferred to a PVDF (polyvinylidene fluoride) for 1 hour, and after which it was washed twice with PBST and stirred in blocking buffer at room temperature for 1 hour. Then, the membrane was washed three times with PBST for 5 minutes each time, after which primary antibody was diluted at a ratio of 1:1,000-1:2,000 with 3% skimmed milk/PBST, and it was sealed together with the membrane and incubated with stirring at 4° C. for 12 hours or more. The membrane was washed 2-3 times with PBST for 5 minutes each time, after which HRP-conjugated secondary antibody was diluted at a ratio of 1:1,500-1:2,000 and incubated with the membrane at room temperature for 2-3 hours. The membrane was washed three times with PBST for 5 minutes each time and treated with a Western blot substrate (WESTSAVE Up™), and the produced luminescence was examined using LAS-3000."}}, "data": [{"compound": "CNC(=O)[C@H]1S[C@@H](n2cnc3c(NCc4cccc(I)c4)nc(Cl)nc32)[C@H](O)[C@@H]1O", "note": "[thio-Cl-IB-MECA, 2-chloro-N^6-(3-iodobenzyl)-4′-thioadenosine-5′-N-methyluronamide]", "values": [{"measurement": "expression of iNOS gene", "setting": "iNOS; RT-PCR, 5, 10 or 20 μM, vs LPS control", "value": "inhibited the expression of iNOS gene in a concentration-dependent manner"}, {"measurement": "expression of iNOS protein", "setting": "iNOS; Western blot, 5, 10, 20 μM, LPS 1 μg/ml, 18 hours", "value": "inhibited the expression of iNOS protein in a concentration-dependent manner"}, {"measurement": "expression of IL-1β gene", "setting": "IL-1β; RT-PCR", "value": "concentration-dependently inhibited"}, {"measurement": "expression of IL-1β protein", "setting": "IL-1β; Western blot", "value": "concentration-dependently inhibited"}, {"measurement": "Wnt signaling pathway, PC-3", "setting": "PC-3 cells", "value": "inhibited the Wnt signaling pathway"}, {"measurement": "expression and RB phosphorylation of cyclin D, cyclin A, CDK4, c-myc and PCNA, PC-3", "setting": "PC-3 cells", "value": "inhibited the expression and RB phosphorylation"}, {"measurement": "expression of p53 and p27, PC-3", "setting": "PC-3 cells", "value": "increased the expression"}]}]}
